In series [1] the target is T1, RXFP1 (Homo sapiens, UniProt Q9HBX9).
T1 construct: OVCAR5 cells expressing endogenous RXFP1; endogenous in cells; host or cells: OVCAR5 cells
T1 sequence (Q9HBX9 1-757): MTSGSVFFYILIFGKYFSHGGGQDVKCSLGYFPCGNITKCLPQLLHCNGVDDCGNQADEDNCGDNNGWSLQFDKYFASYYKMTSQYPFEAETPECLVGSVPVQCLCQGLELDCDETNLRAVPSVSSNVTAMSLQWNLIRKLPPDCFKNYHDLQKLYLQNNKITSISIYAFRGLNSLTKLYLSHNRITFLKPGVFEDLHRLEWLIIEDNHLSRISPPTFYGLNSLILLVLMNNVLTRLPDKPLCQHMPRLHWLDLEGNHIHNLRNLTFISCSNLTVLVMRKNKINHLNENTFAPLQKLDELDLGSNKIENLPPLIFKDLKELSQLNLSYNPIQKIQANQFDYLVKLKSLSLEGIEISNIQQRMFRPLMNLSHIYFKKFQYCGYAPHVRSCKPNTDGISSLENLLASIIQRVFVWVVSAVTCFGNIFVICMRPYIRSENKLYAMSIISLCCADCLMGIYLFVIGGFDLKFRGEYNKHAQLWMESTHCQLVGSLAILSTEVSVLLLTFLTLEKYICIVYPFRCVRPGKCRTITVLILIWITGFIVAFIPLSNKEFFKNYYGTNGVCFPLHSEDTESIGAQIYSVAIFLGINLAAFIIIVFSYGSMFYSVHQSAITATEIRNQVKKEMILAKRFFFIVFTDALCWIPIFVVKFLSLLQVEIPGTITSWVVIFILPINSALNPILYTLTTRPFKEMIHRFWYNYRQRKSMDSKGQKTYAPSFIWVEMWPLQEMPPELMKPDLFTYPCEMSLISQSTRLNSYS
Nature of the series: OVCAR5 cAMP assay (HTRF), RXFP1 agonist activity. It counts as cell-based. To be noted: OVCAR-5; maximal cAMP relative to H2-relaxin maximum (100%); read-out: EMax, OVCAR 5 cells (cAMP). An outline of the steps: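 cAMP accumulation readout: after 1 mM IBMX for 40 min, endogenous-RXFP1 OVCAR5 cells got rising peptide concentrations without FCS, 30 min, 37° C, then lysis with HTRF cAMP reagents. Nonlinear regression gave EC50; Emax expressed relative to H2-relaxin maximum, same occasion.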
A general note: Cyclic AMP is a second messenger, typically raised through Gs and lowered through Gi signalling.

Series [2] in a line: Solubility testing of peptides in buffer. It counts as physicochemical. As to conditions: target solubility 10.0 mg/ml. On the procedure: Prior to the testing of solubility of a peptide batch, its purity (HPLC-UV) was determined.
Acetate Buffer 50 mM pH4.5: 0.75 g […], 3H2O (Sigma 57545)+0.35 ml CH3CO2H 100% solution dissolved in Millipore water, adjusted to pH with diluted (1:1) CH3CO2H and diluted to 250 ml with Millipore water.
In a 4 ml Ependorph vial, an accurately weighed sample of compound was diluted in study media to obtain target concentration of 2, 6 or 10 mg/ml of pure compound. The sample vials were shacked (rock 'roll shaker) for ˜19 h. 3004, Aliquots ( ) were filtered through a Millipore “Solvinert” plate (0.45 μm—PTFE hydrophilic).
pH was measured with a micro electrode
Waters Acquity UPLC System with DAD detector
Column: Waters Peptide Column CSH C18 (130 Å; 1.7 μm; 50*2.1 mm)
Column temperature: 60° C.
Full loop (about 5 μL)—overfill factor 5
Weak et Strong wash: H2O/ACN (75/25; V/V); Seal wash: H2O/IsOH (95/5; V/V). Mobile phase:
Solvent A: 0.05% TFA in H2O; Solvent B: 0.035% TFA in CH3CN
Gradient: from 0 to 12 min B=2% to 60%, from 12 to 14 min B=60% to 100%. Column washing 100% B 1 min, column equilibration 2% B 2.5 min.
UV detector: wavelength: 220 nm.

Series [3] can be described thus: Stability testing of peptides in rat plasma or blood. It counts as in vitro ADME. As to conditions: 5 μM, 37° C. In a few lines:
(§1)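 Peptide at 5 µM final was incubated at 37 °C in heparinized rat or human plasma or blood, sampled up to 4 h, and extracted with acetonitrile/1% TFA. HPLC peak areas relative to t0 give % remaining peptide.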

The nature of series [4]: Pharmacokinetic (PK) determination after i.v. or s.c. administration to rats. Type of series: in vivo, Sprague Dawley rats. As to conditions: Rat PK. In a few lines:
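Non-compartmental analysis of plasma LC/MS data (protein precipitation, BLQ taken as zero) gave T½, C0 (i.v.), Cmax/Tmax (s.c.) and F% from dose-corrected AUCs. Dosing: 3 mg/kg s.c. or 1 mg/kg i.v. in PBS to Sprague Dawley rats, purity- and salt-corrected.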

Series [5] in a line: Stability testing of peptides in human plasma or blood. Type of series: in vitro ADME. As to conditions: 5 μM, 37° C. In a few lines: as §1

Molecules are shown by their SMILES. Marks after values point to notes of the source that are not given here. *1 amine or outer side, *2 acyl side, *3 side chain or, on linkers, in order; H or OH if unused. Where a SMILES comes first, the peptide text is derived from it. Side-chain parts run from the residue outwards. [ ]: non-standard residue; d: D form. The star is where a group is joined. γGlu = O=C(O)[C@H](CCC(=O)[*:2])N[*:1]; Palmitoyl = CCCCCCCCCCCCCCCC(=O)*; αMeK = C[C@](N)(CCCCN)C(=O)O; Nle = CCCC[C@H](N)C(=O)O; AEEA = NCCOCCOCC(=O)O; Aib = CC(C)(N)C(=O)O

As to `CCCCCCCCCCCCCCCC(=O)N[C@@H](CCC(=O)N[C@@H](CCC(=O)N[C@@H](CCC(=O)N[C@@H](CCC(=O)NCCOCCOCC(=O)NCCOCCOCC(=O)NCCOCCOCC(=O)NCCOCCOCC(=O)NCCCC[C@H](NC(=O)[C@H](CCCCNC(C)=O)NC(=O)[C@H](C)NC(=O)[C@H](CCCNC(=N)N)NC(=O)[C@](C)(CCCCN)NC(=O)[C@H](CO)NC(=O)[C@H](Cc1ccccc1)NC(=O)[C@@H](NC(=O)[C@H](CO)NC(=O)[C@H](CCCC)NC(=O)CNC(=O)[C@H](CCC(=O)O)NC(=O)C(C)(C)NC(=O)C(C)(C)NC(=O)[C@@H](NC(=O)[C@H](CCCCNC(C)=O)NC(=O)[C@H](C)NC(=O)[C@H](CCCNC(=N)N)NC(=O)[C@@H](NC(=O)[C@H](CCCCN)NC(=O)[C@H](CCC(=O)O)NC(=O)[C@H](CCCNC(=N)N)NC(=O)CNC(=O)[C@H](CCC(=O)O)NC(=O)[C@H](CC(C)C)NC(C)=O)C(C)C)[C@@H](C)CC)[C@@H](C)O)C(N)=O)C(=O)O)C(=O)O)C(=O)O)C(=O)O` [compound 154] (Ac-LEGREKVRAK(Ac)I[Aib][Aib]EG[Nle]STFS[αMeK]RAK(Ac)K([AEEA-AEEA-AEEA-AEEA-γGlu-γGlu-γGlu-γGlu-Palmitoyl])-NH2), the Emax in series [1] was 92%. Further, in series [2] (acetate buffer 50 mM pH 4.5), the “Solubility Acetate buffer pH 4.5” value is greater than 10 mg/ml****. For the same compound, the “Solubility phosphate buffer pH 7.4” value in series [2] (phosphate buffer 50 mM pH 7.4) is greater than 10 mg/ml****. Besides, the “Rat stability in blood % remaining 1 h” value in series [3] (rat blood, 1 h) was 99** %. Moreover, the “Rat stability in blood % remaining 4 h” value in series [3] (rat blood, 4 h) is on record as 95** %. The “Rat plasma stability % remaining T = 0” value in series [3] (rat plasma or blood, T = 0 (reference)) turned out to be 100%. Also, the “T½” value in series [4] (1 mg/kg i.v.) was determined as 5.00 h. Further, the C0 in series [4] (1 mg/kg i.v., extrapolated plasma concentration at t=0, read-out: C0) was 4.52 µM. In addition, in series [4] (3 mg/kg s.c.), the concentration peaked (Cmax) at 1.89 µM and the “Tmax (-h)” value was 8.0 h. Further, the F % in series [4] (3 mg/kg s.c. vs 1 mg/kg i.v., dose-corrected AUC ratio) is on record as 72%. Also, the “Human stability in blood % remaining 1 h” value in series [5] (human blood, 1 h) is 91** %. In addition, the “Human stability in blood % remaining 4 h” value in series [5] (human blood, 4 h) is recorded as 96** %. Moreover, the “Human Plasma stability % remaining T = 0” value in series [5] (human plasma or blood, T = 0 (reference)) came out at 100%.

The term Emax denotes the greatest response seen or fitted, relative to the assay's reference. In general, Cmax refers to the highest concentration seen after dosing.

Values taken from patent US10988523B2, “Modified lipidated Relaxin B chain peptides and their therapeutic use” (Sanofi, priority 2018, dated 2021).
